One data set deals with T1, CRBN-DDB1 complex (Homo sapiens, UniProt Q96SW2).
T1 construct: His6-ZZ-HRV3C (N); made in house; host or cells: Sf9 insect cells (baculovirus co-infection)
The data set can be described thus: CRBN/DDB1 fluorescence polarization competition assay. Type of data set: binding. How it is done: CRBN/DDB1 Fluorescence Polarization Assay […]
Unless otherwise stated, the aqueous assay buffer contained 0.02 M HEPES((4-(2-hydroxyethyl)-1-piperazineethanesulfonic acid)) pH 8.0, 0.15 M NaCl, 0.5 mM TCEP ((tris(2-carboxyethyl)phosphine)), 0.05% Tween 20. The assay was conducted using 384 well black plates (ProxiPlate F Plus, Perkin-Elmer, Massachusetts, USA).
Plate Reader. […] Fluorescence […]
polarization was measured in units of millipolarization (mP) and are background corrected. Data were plotted and analyzed using […]
All experiments were performed in triplicate unless otherwise stated. Values are quoted as the geometric […]
Each graph is a representative example of a single biological repeat unless otherwise stated.
CRBN/DDB1 Protein Expression & Purification
Protein expression and purification methods adapted from Lopez-Girona et al.5 Full length human CRBN (accession number NM016302) was amplified by PCR & inserted downstream of the polyhedrin promoter of a pFBDM expression vector which had been modified to introduce a N-terminal His6-ZZ-HRV3C tag. Full length human DDB1 (accession number NM001923) was amplified by PCR with primers which introduced a C-terminal StrepTag and inserted downstream of the p10 promoter of a separate pFBDM expression vector. Baculoviruses were generated according to Bac-to-Bac protocols (Invitrogen) and used to co-infect Sf9 cells grown @ 27 °C in shaker flasks using Insect-XPRESS media (Lonza). Cells were harvested 48 hours post infection and frozen. For purification, pellets were thawed & resuspended in 5 volumes of Histrap buffer A (see below) and lysed […]
Superdex 200 (HiLoad 26/600), ResourceQ (6 mL) and finally a second Superdex 200 (HiLoad 26/600) column. All columns were from GE Healthcare and all purification steps were performed @ 4 °C. HisTrap buffer A: 50mM Tris (2-Amino-2-(hydroxymethyl)propane-1,3-diol), 500mM NaCl, 0.5mM TCEP ((tris(2-carboxyethyl)phosphine), 5% glycerol, pH 8.0. HisTrap Buffer B: + 250 mM imidazole. Superdex 200 buffer: 50mM Tris, 200mM NaCl, 0.5mM TCEP, 5% glycerol, pH 8.0. Resource Q buffer A: 50mM Tris, 0.5mM TCEP, 5% Glycerol, pH8.0. Resource Q buffer B + 1M NaCl.
California, USA) to prepare CRBN/DDB1 concentrations from 0.1 to 500 nM in 10 µL final assay volume containing 5 nM FP- […]
point prior to analysis. The KD was calculated using non-linear regression and a one-site specific binding model.
Analysis of competition assay FP-probe bound fraction […]
fb=probe bound fraction, KD=probe dissociation constant, L0=probe concentration, R0=protein concentration, Ki=ligand […]
CRBN/DDB1 Competition Assay
Compounds as solutions in DMSO were dispensed using an ECHO 550 Liquid Handler (Labcyte Inc).
Tracer controls (5 nM FP-probe S18 assay buffer only) and bound tracer controls (5 nM and 80 nM CRBN/DDB1) were included on each assay plate . Plates were incubated overnight at 4 °C before warming to room temperature and fluorescence polarization measured using an EnVision plate reader (Perkin -Elmer, Massachusetts, USA). IC 50 values […]
Table S2. CRBN/DDB1 Control Compounds

In data set [1] the target is T2, pirin protein in SK-OV-3 human ovarian cancer cells (Homo sapiens, UniProt O00625).
T2 construct: endogenous in cells; host or cells: SK-OV-3
T2 sequence (O00625 1-290): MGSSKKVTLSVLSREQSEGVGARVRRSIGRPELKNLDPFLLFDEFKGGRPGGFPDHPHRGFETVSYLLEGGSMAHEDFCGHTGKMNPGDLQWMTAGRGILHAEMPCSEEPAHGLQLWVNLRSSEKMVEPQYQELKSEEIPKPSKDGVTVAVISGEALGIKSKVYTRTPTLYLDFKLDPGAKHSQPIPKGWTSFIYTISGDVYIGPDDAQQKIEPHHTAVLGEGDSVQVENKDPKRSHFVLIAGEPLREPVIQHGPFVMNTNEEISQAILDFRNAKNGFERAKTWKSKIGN
The data set can be described thus: Pirin depletion in SK-OV-3 cells (immunoblot / capillary electrophoresis immunoassay). To be noted: SK-OV-3 cells, Figure S18. Type of data set: cell-based. How it is done: in vivo in athymic mice to increase its tumorigenicity and reliability as a xenograft, and used within 10 passages of banked stocks.
(§1) Prior to use, the cells were analyzed by short tandem repeat (STR) profiling. Polymorphic STR loci were amplified using a polymerase chain reaction (PCR) primer set. The PCR product (each locus being labelled with a different fluorophore) was analyzed simultaneously with size standards using automated fluorescent detection. The number of repeats at 10 different loci (as recommended by the American Type Culture Collection, ATCC) was used to define the STR profile and this was cross-referenced with online databases to confirm authenticity. […]
the ATCC reference line (LGC Promochem, UK). […]
nested PCR protocol (Venor GeM kit, Minerva Biolabs, Germany). Cells were grown in DMEM/10 % FCS, 2 mM glutamine and nonessential amino acids in 5 % CO2.
SK-OV-3 cells were treated as for each experimental condition. Cells were harvested and lysed by scraping in urea lysis buffer (20 mM HEPES pH 8.0, 9 M urea, 1 mM sodium orthovanadate, 2.5 mM sodium pyrophosphate, 1 mM β-glycerophosphate). […]
of samples was determined using a bicinchoninic acid (BCA) protein assay kit (Thermo Fisher Scientific). Western blotting was carried out as previously described.10 Pirin and GAPDH antibodies were obtained from Abcam (ab157212) and Merck […]
Samples were treated, harvested and lysed as described above. A total of 5 μL of 0.2 mg/mL protein was loaded into plates and capillary western analysis was carried out according to the manufacturer’s instructions (ProteinSimple WES). The data was analyzed with the Compass software (ProteinSimple).
Sigma-Aldrich and Cell Signaling Technology, respectively.
10 Sharp SY, Boxall K, Rowlands M, Prodromou C, Roe SM, Maloney A, Powers M, Clarke PA, Box G, Sanderson S, Patterson L, Matthews TP, Cheung KM, Ball K, Hayes A, Raynaud F, Marais R, Pearl L, Eccles S, Aherne W, McDonald E, Workman P. In vitro biological characterization of a novel, synthetic diaryl pyrazole resorcinol class of heat shock protein 90 inhibitors.

Data set [2] is described as follows: Chemical stability as solid and in DMSO stock solution. Format: physicochemical. To be noted: room temperature, data not shown.
Data set [3] can be described thus: PDP aqueous stability protocol. To be noted: 37 °C, pH 7.4 phosphate buffer.
Data set [4] is described as follows: LogD7.4 determination by RP-HPLC. Conditions: pH 7.4.
Data set [5] is described as follows: Kinetic solubility determination by RP-HPLC. To be noted: PBS, pH 7.4, aqueous buffer, kinetic from dmso stock.
The target of the next data set is T3, pirin (Homo sapiens, UniProt O00625).
T3 sequence (O00625 1-290): T2 sequence (O00625 1-290)
The data set can be described thus: Pirin SPR (surface plasmon resonance) binding.

For a further data set, the target named is T4, CRBN (Homo sapiens, UniProt Q96SW2).
T4 construct: endogenous in cells; host or cells: SK-OV-3
In words: Rescue of PDP 16 pirin depletion by CRBN-binding competitive ligand in SK-OV-3 cells. Type of data set: cell-based. To be noted: 10 μM, 4 h pretreatment, then PDP 16 (5 nM) 2 h. Here is the method:
Cell line: The human ovarian carcinoma cell line (SK-OV-3) was obtained from an ICR collaborator in the 1990s. It was passaged in vivo in athymic mice to increase its tumorigenicity and reliability as a xenograft, and used within 10 passages of banked stocks.
as §1
the ATCC reference line (LGC Promochem, UK). The cells were free of mycoplasma contamination as determined by a sensitive nested PCR protocol (Venor GeM kit, Minerva Biolabs, Germany). […]
Samples were sonicated and centrifuged at 20,000 x g for 15 min and the protein extract (supernatant) collected. The total protein of samples was determined using a bicinchoninic acid (BCA) protein assay kit (Thermo Fisher Scientific). […]
Samples were treated, harvested and lysed as described above. […] The data was analyzed with the Compass software (ProteinSimple). […]

Converted amounts (≈) assume the structure as drawn. “Also recorded” adds a separate entry of the source. Like-named read-outs stand apart in the source and are kept apart here. Where only a bound is given, the exact number is not on record here.

In the case of `O=C(COc1cccc2c1C(=O)N(C1CCC(=O)NC1=O)C2=O)NCCOCCC(=O)N1CCN(Cc2ccc3cc(C(=O)Nc4cc(NC(=O)c5ccc6c(c5)OCCO6)ccc4F)ccc3n2)CC1` (stereo not shown) [PDP 10, N-(5-(2,3-Dihydrobenzo[b][1,4]dioxine-6-carboxamido)-2-fluorophenyl)-2-((4-(3-(2-(2-((2-(2,6-dioxopiperidin-3-yl)-1,3-dioxoisoindolin-4-yl)oxy)acetamido)ethoxy)propanoyl)piperazin-1-yl)methyl)quinoline-6-carboxamide], the IC50 at CRBN-DDB1 complex (CRBN/DDB1 FP IC50, single repeat N=2, best-fit value, variable slope four parameters) is 331 nM; on CRBN-DDB1 complex (best-fit value, variable slope four parameters, read-out: CRBN/DDB1 FP IC50, single repeat N=1), 568 nM; on CRBN-DDB1 complex (best-fit value, variable slope four parameters, read-out: CRBN/DDB1 FP IC50, single repeat N=3), 377 nM; on CRBN-DDB1 complex (column statistics, read-out: CRBN/DDB1 FP pIC50, mean of 3 values (unrounded) (converted)), 414 nM; at CRBN-DDB1 complex (displacement of thalidomide derived fluorescent probe, geometric mean n = 3, read-out: CRBN/DDB1 FP IC50), 410 nM; at CRBN-DDB1 complex (n = 3 independent biological repeats, read-out: CRBN/DDB1 FP pIC50±SEM (converted)), 417 nM. Moreover, at CRBN-DDB1 complex (calculated from geometric mean CRBN-DDB1 IC50 and FP-probe KD), the Ki is 95 nM. For the same compound, the “Depletion of intracellular pirin expression” value in data set [1] (3.0 μM total concentration, up to 48 h) is “clear and time-dependent depletion of intracellular pirin expression”. The “Compound exposure needed before pirin degradation was observed” value in data set [1] is reported as “at least 24 h”. Moreover, the “Time stable as a solid and in DMSO stock solution” value in data set [2] is reported as over 1 month. The “Half-life (aqueous stability)” value in data set [3] was about 4 h. Also, in data set [3] (phosphate buffer (PBS), pH 7.4, Half-life (aqueous stability)), the half-life at 100 µM is 4.1 h. Moreover, the chromatographic logD in data set [4] worked out at 1.9. Further, the kinetic solubility at 120 min in data set [5] came to 5 µM (≈ 4.85 µg/mL). In addition, the dissociation constant Kd at pirin (Pirin SPR KD, equilibrium analysis, one site specific binding model, geometric mean n = 3) was 230 nM; at pirin (Pirin SPR KD, representative single repeat, best-fit value, one site specific binding), 224 nM; at pirin (Pirin SPR pKD±SEM, n = 3 independent biological repeats) it was 234 nM. The “Measured Rmax/Theoretical Rmax” value on pirin (SPR) was found to be 0.40.
With `O=C1CCC(N2C(=O)c3ccccc3C2=O)C(=O)N1` (stereo not shown) [Thalidomide], the “Rescue of pirin depletion by thalidomide pretreatment” value on CRBN is “rescues pirin protein depletion; also recorded: successfully rescued pirin depletion”.

Source of the values: PMC5815658 (Journal of Medicinal Chemistry, 2017).
